Results as given in paper PMC5395182, “Soaking suggests “alternative facts”: Only co-crystallization discloses major ligand-induced interface rearrangements of a homodimeric tRNA-binding protein indicating a novel mode-of-inhibition” (PLoS ONE, 2017).
Entries after “also recorded” stand apart in the source; their conditions may differ. Where two headings read alike, the source gives them in different places.

How the values were obtained:
Z. mobilis TGT [1] = biological target: T1, Z. mobilis TGT (Zymomonas mobilis subsp. mobilis, UniProt P28720); test: TGT-catalyzed incorporation of radio-labeled guanine into tRNA (inhibition constants); type: biochemical
T1 construct: Strep-tag II (N, cleaved yes); made in house; host or cells: Escherichia coli
T1 sequence (P28720 whole entry): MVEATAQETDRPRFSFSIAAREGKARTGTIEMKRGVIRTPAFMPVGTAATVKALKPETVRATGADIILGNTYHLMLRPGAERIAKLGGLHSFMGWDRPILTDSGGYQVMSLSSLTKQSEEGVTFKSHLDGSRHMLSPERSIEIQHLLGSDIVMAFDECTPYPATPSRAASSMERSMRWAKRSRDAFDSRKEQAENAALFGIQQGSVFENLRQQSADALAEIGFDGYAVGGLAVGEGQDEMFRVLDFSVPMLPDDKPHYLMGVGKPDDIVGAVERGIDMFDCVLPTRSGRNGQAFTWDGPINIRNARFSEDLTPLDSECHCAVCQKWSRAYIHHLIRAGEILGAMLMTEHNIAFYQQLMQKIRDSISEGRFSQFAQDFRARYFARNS
Method: The inhibition constants (Ki) of ligands 1 to 9, which are listed in Fig 2, were determined previously (except that of 4, which was determined in this study)[19, 20, 23, 26] via a well-established assay monitoring the TGT-catalyzed incorporation of radio-labeled guanine into tRNA. […] This substituent addresses the ribose-33/uracil-33 pocket by forming an H-bond to the main chain carbonyl of Ala232 (Fig 1 and S3 and S4 Figs).
The concentration of Z. mobilis TGT amounted to 9 nM, [8-^3H]-guanine was used at a (saturating) concentration of 10 μM and tRNA^Tyr at a concentration of 1.5 μM. Aliquots of 15 μL were withdrawn for scintillation counting every 60 minutes (in total four).
The Ki value was averaged over three measurements. The preparation of E.coli tRNA^Tyr (ECYC2) via in vitro transcription was carried out using the RiboMAX™ Large Scale RNA Production System-T7 (Promega) according to the vendor´s protocol.

TGT homodimer = system: T2, TGT homodimer; test: Native ESI-MS of TGT:ligand 1:10 mixtures (dimer destabilization); parameters: species or system Zymomonas mobilis; conditions: for Relative proportion of TGT monomers: 2.5 µM TGT and 25 µM inhibitor (1:10), 1 M NH4Ac pH 7.5, without ligand 3.3 ± 0.7 %; for effect on TGT dimer stability / monomer proportion, in words: compared to measurements in the absence of any ligand, TGT:ligand 1:10
T2 construct: Strep-tag II (N, cleaved yes); made in house; host or cells: Escherichia coli
Method: In order to gain insights into the dimer disturbing potential seen in the crystal structures with the different ligands and to collect evidence for such a behavior also present in solution, native ESI-MS was performed. This technique enables to monitor the oligomerization state of TGT at equilibrium under non-denaturing conditions, in the absence or presence of saturating ligand concentrations. […] To ensure reliability, these comparative experiments were thus carried out adhering to strictly similar conditions (see Materials and methods).
Relative proportions of TGT-monomer signals extracted from individual 1:10 TGT:ligand mixtures (TGT monomer 2.5 μM) were quantified (S7 Fig, S1 Table) and normalized with respect to this value in the absence of any inhibitor.
Nano-ESI-MS analyses were performed as already described in the literature. Briefly, WT-TGT samples were exchanged twice against a 1 M ammonium acetate pH 7.5 buffer using microcentrifuge gel-filtration columns (Zeba 0.5 mL, Thermo Scientific). Next, protein concentration was determined spectrophotometrically at 280 nm (Nano-Drop 2000 spectrophotometer, Thermo Scientific).
Native MS experiments were carried out on a hybrid Q-TOF mass spectrometer (Synapt G2 HDMS, Waters) equipped with an automated chip-based nanoESI source (Triversa Nanomate, Advion Biosciences) operating in the positive ion mode. External calibrations were generated from the multiple charged ions produced by a 2 μM horse heart myoglobin solution diluted in a 1:1 (v/v) water: acetonitrile mixture acidified with 1% (v/v) formic acid (denaturing MS) and singly charged cesium iodide clusters diluted to 2 g∙L^-1 in a 1:1 (v/v) water: isopropanol solution (native MS).
Titration experiments in native conditions (1 M NH4Ac pH 7.5) were next triggered by mixing 2.5 μM TGT monomers with 25 μM of each ligand separately (ratio 1:10). The final DMSO concentration of each mixture never exceeded 0.25% (v/v). Non-covalent TGT dimers and TGT-ligand complexes were preserved in the gas phase according fine-tuned instrumental parameters, improving ion desolvation and transmission while maintaining intact structures (Vc = 80V, Pi = 6 mbar).
Relative quantification of TGT monomers was performed from charge states peak intensities of both monomeric (10 to 14+) and dimeric complexes (15 to 20+), using MassLynx 4.1 (Waters). TGT dimer disruption was determined for each ligand through their destabilization factor (Fig 8) which corresponds to their associated ratio of TGT monomers normalized from the apo-condition (S7 Fig; S1 Table). Standard deviations are calculated here from analytical triplicates. For the sake of reliability and comparability, all these experiments were performed within the same day, from identical experimental and instrumental conditions using the same buffer exchanged TGT batch (frozen and thawed only once).

Z. mobilis TGT [2] = biological target: T1, Z. mobilis TGT; conditions: cited from earlier work
Z. mobilis TGT [3] = biological target: T1, Z. mobilis TGT; parameters: method as in PMID 24955548; conditions: cited from earlier work
[4] = Ligand dilution in native MS buffer (precipitation); type: physicochemical; conditions: 1 M NH4Ac pH 7.5
[5] = ionization corrected, data for 1 determined previously

| SMILES | factor by which 1 is more potent than 3 (Z. mobilis TGT [1]; radio-labeled assay, Ki ratio 1 vs 3) | Relative proportion of TGT monomers (TGT homodimer) [%] | effect on TGT dimer stability / monomer proportion, in words (TGT homodimer) | increase of affinity compared to the unsubstituted lin-benzoguanine (factor) (Z. mobilis TGT [2]; Ki ratio) | Ki (Z. mobilis TGT [2]) [nM] | -TΔS^0 (Z. mobilis TGT [3]; HEPES buffer) | ΔH^0obs (Z. mobilis TGT [3]; HEPES buffer) | Kd (Z. mobilis TGT [3]; ITC, 298 K) [nM] | ΔG^0 (Z. mobilis TGT [3]; ITC) | -TΔS^0 (Z. mobilis TGT [3]; TRIS buffer) | ΔH^0obs (Z. mobilis TGT [3]; TRIS buffer) | -TΔS^0 (Z. mobilis TGT [3]; Tricin buffer) | ΔH^0obs (Z. mobilis TGT [3]; Tricin buffer) | -TΔS^0 (Z. mobilis TGT [3]; [5]) [kJ/mol] | ΔH^0bind (Z. mobilis TGT [3]; [5]) [kJ/mol] | protons picked up during binding (Z. mobilis TGT [3]; slope of linear regression) | Ki (Z. mobilis TGT [1]; determined in this study, competitive with respect to tRNA substrate, averaged over three measurements) [nM] | precipitation upon ligand dilution in buffer [4] |
| --- | --- | --- | --- | --- | --- | --- | --- | --- | --- | --- | --- | --- | --- | --- | --- | --- | --- | --- |
| CNc1nc2cc3nc(N)[nH]c(=O)c3cc2[nH]1 [Inhibitor 1] | 6 | 3.4 | No effect on dimer stability | 70 | 58 ± 36 | 34.2 ± 1.9^29 kJ∙mol^-1 | -74.8 ± 1.8^29 kJ∙mol^-1 | 52 ± 7 | -41.6 ± 0.3^29 kJ∙mol^-1 | 9.3 ± 0.9^29 kJ∙mol^-1 | -50.9 ± 0.9^29 kJ∙mol^-1 | 25.1 ± 0.3^29 kJ∙mol^-1 | -66.7 ± 0.1^29 kJ∙mol^-1 | 52.0 | -93.6 | 0.89 protons per mole of the formed complex |  |  |
| CNc1nc2c(CCNCC3CCC(C#Cc4cccnc4)CC3)c3nc(N)[nH]c(=O)c3cc2[nH]1 (centres unmarked) [Inhibitor 4] |  | 5.6 | small effect might be given |  |  |  |  |  |  |  |  |  |  |  |  |  | 193 ± 41 | partial precipitation; also recorded: To a lower extent, a similar phenomenon was also observed |
